Experimental data taken from patent US12371454B2, “Cyclic peptide compound having Kras inhibitory action” (priority 2019, dated 2025).
Positions of bridges follow the written chain, without caps; N, C: chain ends. Non-standard residues stand in square brackets, D forms with d. Residues, ends and D or L forms follow the SMILES beside them. *: point of attachment. hPhe(3-Cl-4-CF3) = N[C@@H](CCc1ccc(C(F)(F)F)c(Cl)c1)C(=O)O; hPhe(3-F,4-CF3) = N[C@@H](CCc1ccc(C(F)(F)F)c(F)c1)C(=O)O; NMePhe(4-CF3) = CN[C@@H](Cc1ccc(C(F)(F)F)cc1)C(=O)O; 3Oxa8azabicyclo(3.2.1)octane = C1CC2COCC1N2*; NMePhe(4-Me) = CN[C@@H](Cc1ccc(C)cc1)C(=O)O; hPhe(4-Cl) = N[C@@H](CCc1ccc(Cl)cc1)C(=O)O; NMeAla(cPent) = CN[C@@H](CC1CCCC1)C(=O)O; NMeCha = CN[C@@H](CC1CCCCC1)C(=O)O; NMeChg = CN[C@H](C(=O)O)C1CCCCC1; NMeI = CC[C@H](C)[C@H](NC)C(=O)O; Gly(cBu) = N[C@H](C(=O)O)C1CCC1; N(CH2CH2)2CF2 = FC1(F)CCN(*)CC1; NMeD = CN[C@@H](CC(=O)O)C(=O)O; NMeL = CN[C@@H](CC(C)C)C(=O)O; NMeNva = CCC[C@H](NC)C(=O)O; NMeAbu = CC[C@H](NC)C(=O)O; NMeS = CN[C@@H](CO)C(=O)O; Morpholide = C1CN(*)CCO1; NMeA = CN[C@@H](C)C(=O)O; Pyrrolidide = C1CCN(*)C1; Ac5c = NC1(C(=O)O)CCCC1; Aze = O=C(O)[C@@H]1CCN1; Sar = CNCC(=O)O; Propyl = CCC*

How the values were obtained:
[1] = molecular target: T1, Kras and SOS1 (biotin-tagged human Kras loaded with GDP, His-tagged human SOS1) (Homo sapiens, UniProt P01116, G12D); test: Protein-protein interaction inhibition between Kras and SOS1 (KrasGl2D-SOS PPI) using AlphaScreen; assay type: binding; settings: AlphaScreen; biotin-tagged human Kras loaded with GDP, His-tagged human SOS1; read-out: KRAS G12D-SOS PPI IC50
T1 construct: made in house; host or cells: E. coli (stated for Kras only)
Outline: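 Donor beads (nickel) hold His-SOS1; acceptor beads (streptavidin) hold biotin-Kras bound to GDP. Signal measured at 520-620 nm following 680 nm excitation.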

[2] = system: Human pancreatic cancer cell line AsPC-1; test: Measurement of AsPC-1 cell growth inhibition (AsPC-1 CGI); assay type: cell-based; settings: 96 h
Outline: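 AsPC-1 cells in 15% FBS RPMI-1640 were exposed to test compound for 96 hours at 37° C, with CellTiter-Glo as endpoint.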

T1 sequence (P01116 1-188 isoform P01116-2 G12D): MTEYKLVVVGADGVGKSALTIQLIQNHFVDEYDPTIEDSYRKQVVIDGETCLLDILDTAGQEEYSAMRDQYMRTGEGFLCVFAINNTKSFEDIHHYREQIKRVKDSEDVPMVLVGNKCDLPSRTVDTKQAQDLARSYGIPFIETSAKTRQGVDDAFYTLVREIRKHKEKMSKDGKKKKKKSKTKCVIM

Structure (SMILES)	IC50 [1]	IC50 [2]
CCCOC[C@H]1C(=O)N(C)CC(=O)N[C@@H](CCc2ccc(C(F)(F)F)c(Cl)c2)C(=O)N2CCC[C@H]2C(=O)NC2(CCCC2)C(=O)N(C)[C@@H](C2CCCCC2)C(=O)N(C)[C@H](C(=O)N2C3CCC2COC3)CC(=O)N(C)[C@@H](CC)C(=O)N[C@@H]([C@@H](C)CC)C(=O)N(C)CC(=O)N(C)CC(=O)N1C [Compound 1956] ([NMeAbu]I[Sar][Sar][NMeS](Propyl)[Sar][hPhe(3-Cl-4-CF3)]P[Ac5c][NMeChg][NMeD]-{3Oxa8azabicyclo(3.2.1)octane}; lactam N-11)	0.00076 µM	0.1 to 0.5 µM
CC[C@H](C)[C@@H]1NC(=O)[C@H](CC(C)C)N(C)C(=O)C[C@@H](C(=O)N2C3CCC2COC3)N(C)C(=O)[C@H](C2CCCCC2)N(C)C(=O)C2(CCCC2)NC(=O)[C@@H]2CCCN2C(=O)[C@H](CCc2ccc(C(F)(F)F)c(F)c2)NC(=O)CN(C)C(=O)[C@H](CC2CCCCC2)N(C)C(=O)CN(C)C(=O)CN(C)C1=O [Compound 1957] ([NMeL]I[Sar][Sar][NMeCha][Sar][hPhe(3-F,4-CF3)]P[Ac5c][NMeChg][NMeD]-{3Oxa8azabicyclo(3.2.1)octane}; lactam N-11)	0.0012 µM	0.1 to 0.5 µM
CC[C@H](C)[C@@H]1NC(=O)[C@H](CC)N(C)C(=O)C[C@@H](C(=O)N2CCCC2)N(C)C(=O)[C@H](C2CCCCC2)N(C)C(=O)C2(CCCC2)NC(=O)[C@@H]2CCCN2C(=O)[C@H](CCc2ccc(C(F)(F)F)c(Cl)c2)NC(=O)CN(C)C(=O)[C@H](CC2CCCCC2)N(C)C(=O)CN(C)C(=O)CN(C)C1=O [Compound 1958] ([NMeAbu]I[Sar][Sar][NMeCha][Sar][hPhe(3-Cl-4-CF3)]P[Ac5c][NMeChg][NMeD]-Pyrrolidide; lactam N-11)	0.00045 µM	0.02 to 0.05 µM
CC[C@H](C)[C@@H]1NC(=O)[C@H](CC)N(C)C(=O)C[C@@H](C(=O)N2C3CCC2COC3)N(C)C(=O)[C@H](C2CCCCC2)N(C)C(=O)C2(CCCC2)NC(=O)[C@@H]2CCCN2C(=O)[C@H](CCc2ccc(C(F)(F)F)c(Cl)c2)NC(=O)CN(C)C(=O)[C@H](Cc2ccc(C)cc2)N(C)C(=O)CN(C)C(=O)CN(C)C1=O [Compound 1963] ([NMeAbu]I[Sar][Sar][NMePhe(4-Me)][Sar][hPhe(3-Cl-4-CF3)]P[Ac5c][NMeChg][NMeD]-{3Oxa8azabicyclo(3.2.1)octane}; lactam N-11)	0.00063 µM	0.05 to 0.1 µM
CC[C@H](C)[C@@H]1NC(=O)[C@H](CC(C)C)N(C)C(=O)C[C@@H](C(=O)N2CCOCC2)N(C)C(=O)[C@H](C2CCCCC2)N(C)C(=O)C2(CCCC2)NC(=O)[C@@H]2CCCN2C(=O)[C@H](CCc2ccc(C(F)(F)F)c(F)c2)NC(=O)CN(C)C(=O)[C@H](CC2CCCCC2)N(C)C(=O)CN(C)C(=O)CN(C)C1=O [Compound 1965] ([NMeL]I[Sar][Sar][NMeCha][Sar][hPhe(3-F,4-CF3)]P[Ac5c][NMeChg][NMeD]-Morpholide; lactam N-11)	0.00055 µM	0.05 to 0.1 µM
CC[C@H](C)[C@@H]1NC(=O)[C@H](CC(C)C)N(C)C(=O)C[C@@H](C(=O)N2CCCC2)N(C)C(=O)[C@H](C2CCCCC2)N(C)C(=O)C2(CCCC2)NC(=O)[C@@H]2CCCN2C(=O)[C@H](CCc2ccc(Cl)cc2)NC(=O)CN(C)C(=O)[C@H](CC2CCCCC2)N(C)C(=O)CN(C)C(=O)CN(C)C1=O [Compound 1968] ([NMeL]I[Sar][Sar][NMeCha][Sar][hPhe(4-Cl)]P[Ac5c][NMeChg][NMeD]-Pyrrolidide; lactam N-11)	0.0012 µM	0.05 to 0.1 µM
CC[C@H](C)[C@@H]1NC(=O)[C@H](CC(C)C)N(C)C(=O)C[C@@H](C(=O)N2CCCC2)N(C)C(=O)[C@H](C2CCCCC2)N(C)C(=O)C2(CCCC2)NC(=O)[C@@H]2CCCN2C(=O)[C@H](CCc2ccc(C(F)(F)F)c(Cl)c2)NC(=O)CN(C)C(=O)[C@H](CC2CCCC2)N(C)C(=O)CN(C)C(=O)CN(C)C1=O [Compound 1969] ([NMeL]I[Sar][Sar][NMeAla(cPent)][Sar][hPhe(3-Cl-4-CF3)]P[Ac5c][NMeChg][NMeD]-Pyrrolidide; lactam N-11)	0.00061 µM	0.05 to 0.1 µM
CCCOC[C@H]1C(=O)N(C)CC(=O)N[C@@H](CCc2ccc(C(F)(F)F)c(Cl)c2)C(=O)N2CCC[C@H]2C(=O)NC2(CCCC2)C(=O)N(C)[C@@H](C2CCCCC2)C(=O)N(C)[C@H](C(=O)N2C3CCC2COC3)CC(=O)N(C)[C@@H](CCC)C(=O)N[C@@H]([C@@H](C)CC)C(=O)N(C)CC(=O)N(C)CC(=O)N1C [Compound 1971] ([NMeNva]I[Sar][Sar][NMeS](Propyl)[Sar][hPhe(3-Cl-4-CF3)]P[Ac5c][NMeChg][NMeD]-{3Oxa8azabicyclo(3.2.1)octane}; lactam N-11)	0.0011 µM	0.1 to 0.5 µM
CCC[C@H]1C(=O)N[C@@H]([C@@H](C)CC)C(=O)N(C)CC(=O)N(C)CC(=O)N(C)[C@@H](Cc2ccc(C(F)(F)F)cc2)C(=O)N(C)CC(=O)N[C@@H](CCc2ccc(C(F)(F)F)c(Cl)c2)C(=O)N2CCC[C@H]2C(=O)NC2(CCCC2)C(=O)N(C)[C@@H](C2CCCCC2)C(=O)N(C)[C@H](C(=O)N2CCOCC2)CC(=O)N1C [Compound 1972] ([NMeNva]I[Sar][Sar][NMePhe(4-CF3)][Sar][hPhe(3-Cl-4-CF3)]P[Ac5c][NMeChg][NMeD]-Morpholide; lactam N-11)	0.00037 µM	0.02 to 0.05 µM
CCC[C@H]1C(=O)N[C@@H]([C@@H](C)CC)C(=O)N(C)CC(=O)N(C)CC(=O)N(C)[C@@H](CC2CCCC2)C(=O)N(C)CC(=O)N[C@@H](CCc2ccc(C(F)(F)F)c(Cl)c2)C(=O)N2CCC[C@H]2C(=O)NC2(CCCC2)C(=O)N(C)[C@@H](C2CCCCC2)C(=O)N(C)[C@H](C(=O)N2CCCC2)CC(=O)N1C [Compound 1975] ([NMeNva]I[Sar][Sar][NMeAla(cPent)][Sar][hPhe(3-Cl-4-CF3)]P[Ac5c][NMeChg][NMeD]-Pyrrolidide; lactam N-11)	0.00051 µM	0.05 to 0.1 µM
CC[C@H](C)[C@@H]1NC(=O)[C@H](CC(C)C)N(C)C(=O)C[C@@H](C(=O)N2C3CCC2COC3)N(C)C(=O)[C@H](C2CCCCC2)N(C)C(=O)C2(CCCC2)NC(=O)[C@@H]2CCCN2C(=O)[C@H](CCc2ccc(C(F)(F)F)c(Cl)c2)NC(=O)CN(C)C(=O)[C@H](CC2CCCC2)N(C)C(=O)CN(C)C(=O)CN(C)C1=O [Compound 1976] ([NMeL]I[Sar][Sar][NMeAla(cPent)][Sar][hPhe(3-Cl-4-CF3)]P[Ac5c][NMeChg][NMeD]-{3Oxa8azabicyclo(3.2.1)octane}; lactam N-11)	0.0015 µM	0.1 to 0.5 µM
CC[C@H](C)[C@@H]1NC(=O)[C@H](CC(C)C)N(C)C(=O)C[C@@H](C(=O)N2CCCC2)N(C)C(=O)[C@H](C2CCCCC2)N(C)C(=O)C2(CCCC2)NC(=O)[C@@H]2CCCN2C(=O)[C@H](CCc2ccc(C(F)(F)F)c(Cl)c2)NC(=O)CN(C)C(=O)[C@H](Cc2ccc(C(F)(F)F)cc2)N(C)C(=O)CN(C)C(=O)CN(C)C1=O [Compound 1978] ([NMeL]I[Sar][Sar][NMePhe(4-CF3)][Sar][hPhe(3-Cl-4-CF3)]P[Ac5c][NMeChg][NMeD]-Pyrrolidide; lactam N-11)	0.00051 µM	0.02 to 0.05 µM
CC[C@H](C)[C@@H]1NC(=O)[C@H](CC(C)C)N(C)C(=O)C[C@@H](C(=O)N(C)C)N(C)C(=O)[C@H]([C@@H](C)CC)N(C)C(=O)C2(CCCC2)NC(=O)[C@H](CC(=O)N2CCC(F)(F)CC2)N(C)C(=O)[C@H](CCc2ccc(C(F)(F)F)c(Cl)c2)NC(=O)CN(C)C(=O)[C@H](Cc2ccc(C)cc2)N(C)C(=O)[C@@H]2CCN2C(=O)[C@H](C)N(C)C1=O [Compound 1980] ([NMeL]I[NMeA][Aze][NMePhe(4-Me)][Sar][hPhe(3-Cl-4-CF3)][NMeD](N(CH2CH2)2CF2)[Ac5c][NMeI][NMeD]-NMe2; lactam N-11)	0.0015 µM	0.1 to 0.5 µM
CCC[C@H]1C(=O)N[C@@H]([C@@H](C)CC)C(=O)N(C)CC(=O)N(C)CC(=O)N(C)[C@@H](Cc2ccc(C(F)(F)F)cc2)C(=O)N(C)CC(=O)N[C@@H](CCc2ccc(C(F)(F)F)c(Cl)c2)C(=O)N2CCC[C@H]2C(=O)NC2(CCCC2)C(=O)N(C)[C@@H](C2CCCCC2)C(=O)N(C)[C@H](C(=O)N2C3CCC2COC3)CC(=O)N1C [Compound 1983] ([NMeNva]I[Sar][Sar][NMePhe(4-CF3)][Sar][hPhe(3-Cl-4-CF3)]P[Ac5c][NMeChg][NMeD]-{3Oxa8azabicyclo(3.2.1)octane}; lactam N-11)	0.00068 µM	0.02 to 0.05 µM
CCC[C@H]1C(=O)N[C@@H]([C@@H](C)CC)C(=O)N(C)CC(=O)N(C)CC(=O)N(C)[C@@H](Cc2ccc(C(F)(F)F)cc2)C(=O)N(C)CC(=O)N[C@@H](CCc2ccc(C(F)(F)F)c(Cl)c2)C(=O)N2CCC[C@H]2C(=O)NC2(CCCC2)C(=O)N(C)[C@@H](C2CCCCC2)C(=O)N(C)[C@H](C(=O)N2CCCC2)CC(=O)N1C [Compound 1984] ([NMeNva]I[Sar][Sar][NMePhe(4-CF3)][Sar][hPhe(3-Cl-4-CF3)]P[Ac5c][NMeChg][NMeD]-Pyrrolidide; lactam N-11)	0.00038 µM	0.02 to 0.05 µM
CC(C)C[C@H]1C(=O)N[C@@H](C2CCC2)C(=O)N(C)CC(=O)N(C)CC(=O)N(C)[C@@H](CC2CCCCC2)C(=O)N(C)CC(=O)N[C@@H](CCc2ccc(C(F)(F)F)c(Cl)c2)C(=O)N2CCC[C@H]2C(=O)NC2(CCCC2)C(=O)N(C)[C@@H](C2CCCCC2)C(=O)N(C)[C@H](C(=O)N2CCCC2)CC(=O)N1C [Compound 1988] ([NMeL][Gly(cBu)][Sar][Sar][NMeCha][Sar][hPhe(3-Cl-4-CF3)]P[Ac5c][NMeChg][NMeD]-Pyrrolidide; lactam N-11)	0.00069 µM	0.05 to 0.1 µM
